Measured values: PubChem BioAssay (NCI)
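1) Cells in 96-well plates. 2) Compound, 48 h, 5 concentrations. 3) Linear interpolation between surrounding doses. 4) Unreached endpoint = highest concentration. The concentration for 50% growth inhibition is given as GI50. TGI marks complete inhibition of growth.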

What was measured:
Assay in all cases: NCI tumour cell line growth inhibition, 48 h
SNB-75 CNS = system: SNB-75 CNS
UACC-257 melanoma = system: UACC-257 melanoma
NCI/ADR-RES ovarian = system: NCI/ADR-RES ovarian
MCF7 breast = system: MCF7 breast
HS 578T breast = system: HS 578T breast
HOP-92 NSCLC = system: HOP-92 NSCLC
RXF 393 renal = system: RXF 393 renal
SK-MEL-5 melanoma = system: SK-MEL-5 melanoma
OVCAR-8 ovarian = system: OVCAR-8 ovarian
SNB-19 CNS = system: SNB-19 CNS
LOX IMVI melanoma = system: LOX IMVI melanoma
NCI-H23 lung = system: NCI-H23 lung
BT-549 breast = system: BT-549 breast
HCC-2998 colon = system: HCC-2998 colon
HOP-62 NSCLC = system: HOP-62 NSCLC
KM12 colon = system: KM12 colon
TK-10 renal = system: TK-10 renal
NCI-H522 lung = system: NCI-H522 lung
MDA-MB-231 breast = system: MDA-MB-231 breast
CAKI-1 renal = system: CAKI-1 renal
OVCAR-3 ovarian = system: OVCAR-3 ovarian
MDA-MB-435 = system: MDA-MB-435
HCT-116 colon = system: HCT-116 colon
OVCAR-4 ovarian = system: OVCAR-4 ovarian
OVCAR-5 ovarian = system: OVCAR-5 ovarian
NCI-H460 lung = system: NCI-H460 lung
SF-295 CNS = system: SF-295 CNS
MOLT-4 leukemia = system: MOLT-4 leukemia
IGROV1 ovarian = system: IGROV1 ovarian
HT29 colon = system: HT29 colon
SF-539 CNS = system: SF-539 CNS
T-47D breast = system: T-47D breast
SF-268 CNS = system: SF-268 CNS
RPMI-8226 leukemia = system: RPMI-8226 leukemia
A549 NSCLC = system: A549 NSCLC
SN12C renal = system: SN12C renal
K-562 leukemia = system: K-562 leukemia
UACC-62 melanoma = system: UACC-62 melanoma
HCT-15 colon = system: HCT-15 colon
DU-145 prostate = system: DU-145 prostate
MALME-3M melanoma = system: MALME-3M melanoma
SR leukemia = system: SR leukemia
U251 CNS = system: U251 CNS
SK-MEL-2 melanoma = system: SK-MEL-2 melanoma
786-0 renal = system: 786-0 renal
M14 melanoma = system: M14 melanoma
EKVX NSCLC = system: EKVX NSCLC
UO-31 renal = system: UO-31 renal
SW-620 colon = system: SW-620 colon
PC-3 prostate = system: PC-3 prostate
HL-60(TB) leukemia = system: HL-60(TB) leukemia
SK-MEL-28 melanoma = system: SK-MEL-28 melanoma
CCRF-CEM leukemia = system: CCRF-CEM leukemia
ACHN renal = system: ACHN renal

OC(c1cccc(-n2ccc(C(F)(F)F)n2)c1)c1cnccc1NC1CCCCCC1 (stereo not drawn)
GI50 (SNB-75 CNS): 1360 nM | TGI (SNB-75 CNS): 2670 nM | GI50 (UACC-257 melanoma): 1860 nM | TGI (UACC-257 melanoma): 3760 nM | GI50 (NCI/ADR-RES ovarian): 1810 nM | TGI (NCI/ADR-RES ovarian): 3350 nM | GI50 (MCF7 breast): 1530 nM | TGI (MCF7 breast): 3110 nM | GI50 (HS 578T breast): 1640 nM | TGI (HS 578T breast): 3690 nM | GI50 (HOP-92 NSCLC): 1210 nM | TGI (HOP-92 NSCLC): 2530 nM | GI50 (RXF 393 renal): 1360 nM | TGI (RXF 393 renal): 2740 nM | GI50 (SK-MEL-5 melanoma): 1730 nM | TGI (SK-MEL-5 melanoma): 3180 nM | GI50 (OVCAR-8 ovarian): 1920 nM | TGI (OVCAR-8 ovarian): 3930 nM | GI50 (SNB-19 CNS): 1730 nM | TGI (SNB-19 CNS): 3240 nM | GI50 (LOX IMVI melanoma): 1690 nM | TGI (LOX IMVI melanoma): 3120 nM | GI50 (NCI-H23 lung): 1740 nM | TGI (NCI-H23 lung): 3200 nM | GI50 (BT-549 breast): 1630 nM | TGI (BT-549 breast): 3060 nM | GI50 (HCC-2998 colon): 1610 nM | TGI (HCC-2998 colon): 3030 nM | GI50 (HOP-62 NSCLC): 1950 nM | TGI (HOP-62 NSCLC): 3840 nM | GI50 (KM12 colon): 1870 nM | TGI (KM12 colon): 3540 nM | GI50 (TK-10 renal): 1770 nM | TGI (TK-10 renal): 3490 nM | GI50 (NCI-H522 lung): 1760 nM | TGI (NCI-H522 lung): 3590 nM | GI50 (MDA-MB-231 breast): 1690 nM | TGI (MDA-MB-231 breast): 3160 nM | GI50 (CAKI-1 renal): 1570 nM | TGI (CAKI-1 renal): 2960 nM | GI50 (OVCAR-3 ovarian): 1760 nM | TGI (OVCAR-3 ovarian): 3220 nM | GI50 (MDA-MB-435): 1730 nM | TGI (MDA-MB-435): 3140 nM | GI50 (HCT-116 colon): 1790 nM | TGI (HCT-116 colon): 3590 nM | GI50 (OVCAR-4 ovarian): 1640 nM | TGI (OVCAR-4 ovarian): 3070 nM | GI50 (OVCAR-5 ovarian): 1640 nM | TGI (OVCAR-5 ovarian): 3010 nM | GI50 (NCI-H460 lung): 1840 nM | TGI (NCI-H460 lung): 3420 nM | GI50 (SF-295 CNS): 1790 nM | TGI (SF-295 CNS): 3200 nM | GI50 (MOLT-4 leukemia): 2160 nM | TGI (MOLT-4 leukemia): 4830 nM | GI50 (IGROV1 ovarian): 1530 nM | TGI (IGROV1 ovarian): 2920 nM | GI50 (HT29 colon): 1800 nM | TGI (HT29 colon): 4330 nM | GI50 (SF-539 CNS): 1690 nM | TGI (SF-539 CNS): 3100 nM | GI50 (T-47D breast): 1770 nM | TGI (T-47D breast): 4230 nM | GI50 (SF-268 CNS): 1690 nM | TGI (SF-268 CNS): 3250 nM | GI50 (RPMI-8226 leukemia): 1570 nM | TGI (RPMI-8226 leukemia): 4510 nM | GI50 (A549 NSCLC): 1810 nM | TGI (A549 NSCLC): 3560 nM | GI50 (SN12C renal): 1690 nM | TGI (SN12C renal): 3200 nM | GI50 (K-562 leukemia): 1370 nM | TGI (K-562 leukemia): 4960 nM | GI50 (UACC-62 melanoma): 1740 nM | TGI (UACC-62 melanoma): 3140 nM | GI50 (HCT-15 colon): 1600 nM | TGI (HCT-15 colon): 3100 nM | GI50 (DU-145 prostate): 1810 nM | TGI (DU-145 prostate): 3240 nM | GI50 (MALME-3M melanoma): 1710 nM | TGI (MALME-3M melanoma): 3230 nM | GI50 (SR leukemia): 1790 nM | TGI (SR leukemia): 6490 nM | GI50 (U251 CNS): 1660 nM | TGI (U251 CNS): 3240 nM | GI50 (SK-MEL-2 melanoma): 2010 nM | TGI (SK-MEL-2 melanoma): 3820 nM | GI50 (786-0 renal): 1720 nM | TGI (786-0 renal): 3180 nM | GI50 (M14 melanoma): 1780 nM | TGI (M14 melanoma): 3290 nM | GI50 (EKVX NSCLC): 1660 nM | TGI (EKVX NSCLC): 3160 nM | GI50 (UO-31 renal): 1370 nM | TGI (UO-31 renal): 2700 nM | GI50 (SW-620 colon): 1670 nM | TGI (SW-620 colon): 3310 nM | GI50 (PC-3 prostate): 1590 nM | TGI (PC-3 prostate): 3090 nM | GI50 (HL-60(TB) leukemia): 2060 nM | TGI (HL-60(TB) leukemia): 4260 nM | GI50 (SK-MEL-28 melanoma): 1770 nM | TGI (SK-MEL-28 melanoma): 3200 nM | GI50 (CCRF-CEM leukemia): 2350 nM | TGI (CCRF-CEM leukemia): 6040 nM | GI50 (ACHN renal): 1650 nM | TGI (ACHN renal): 3020 nM
